What was measured:
Assay type in all cases: in vivo
[1] = tested on: diet-induced obesity (DIO) mouse model; assay: Reduction in liver/fat weight on repeated co-administration with semaglutide in DIO mice; conditions: after 3 weeks, FIG. 3
Method: In a diet-induced obesity (DIO) mouse model where obesity was induced using a high-fat diet, the effect of reduction in liver and fat weights was measured after 3 weeks of repeated co-administration of semaglutide (a GLP-1 receptor agonist, trade name: Ozempic) and the test compound, which is an MC4R agonist, with the results shown in FIG. 3.

[2] = tested on: diet-induced obesity (DIO) mouse model; assay: Combination study with PF-06882961 (danuglipron) in DIO mice: food intake, body weight, body fat mass, OGTT
Method: In a diet-induced obesity (DIO) mouse model where obesity was induced using a high-fat diet, changes in food intake and body weight were measured over 4 weeks of repeated co-administration of PF-06882961 (danuglipron), which is an oral GLP-1 receptor agonist, and the test compound, which is an MC4R agonist. Food intake and body weight were measured once daily prior to the administration of the test substances, and changes in body weight relative to weight (D1) prior to the administration of the test substances were calculated, with the results presented in FIGS. 5 and 6, respectively. Further, on the 28th day after the administration of the test substances, body fat mass and an oral glucose tolerance test (OGTT) were measured, with the results shown in FIGS. 7 and 8, respectively. Body fat mass was measured using a ^1H-Mini-spec system (LF-9011, Bruker Optics GmbH, Germany) and blood glucose was measured using GM9 (Analox Instruments Ltd., UK) with blood samples collected from the tail vein.

[3] = tested on: diet-induced obesity (DIO) mouse model; assay: Comparative example: weight loss on co-administration of semaglutide with test compound or setmelanotide in DIO mice; conditions: repeated co-administration with semaglutide for 18 days, test compound 15 mg/kg/day, comparative compound 3 mg/kg/day, FIG. 4
Source text: In a diet-induced obesity (DIO) mouse model where obesity was induced using a high-fat diet, the weight loss effect was compared after 18 days of repeated co-administration of semaglutide (a GLP-1 receptor agonist, trade name: Ozempic) with either the test compound, which is an MC4R agonist, or setmelanotide (RM-493), which is a peptide MC4R agonist (hereinafter referred to as ‘comparative compound’). Dosages of the test compound and the comparative compound were selected based on the efficacious doses observed in single administration studies (test compound: 15 mg/kg/day, comparative compound: 3 mg/kg/day). Body weight measurements were taken once daily prior to the administration of the test substances, and changes in body weight after 18 days relative to weight (D1) prior to the administration of the test substances were calculated and presented in FIG. 4.

[4] = tested on: diet-induced obesity (DIO) mouse model; assay: Weight loss effect on repeated co-administration with semaglutide in DIO mice; conditions: repeated co-administration with semaglutide over 18 days, versus single administration, FIGS. 1 and 2
Method: In a diet-induced obesity (DIO) mouse model where obesity was induced using a high-fat diet, the weight loss effect was measured over 18 days following repeated co-administration of semaglutide (a GLP-1 receptor agonist, trade name: Ozempic) and an MC4R agonist, N-((3S,5S)-1-((3S,4R)-1-(tert-butyl)-4-(4-chlorophenyl)pyrrolidine-3-carbonyl)-5-(morpholin-4-carbonyl)pyrrolidin-3-yl)-N-((1 S,4R)-4-methylcyclohexyl)isobutyramide hydrochloride obtained in Preparation Example (hereinafter referred to as ‘test compound’). Body weight measurements were taken once daily prior to the administration of the test substances, and changes in body weight compared to weight (D1) prior to the administration of the test substances were calculated and presented in FIGS. 1 and 2. By comparing the weight loss effect in the co-administration group to that in the single administration group, the effect of co-administration of a GLP-1 receptor agonist and the test compound was evaluated.

CC(C)C(=O)N([C@H]1C[C@@H](C(=O)N2CCOCC2)N(C(=O)[C@@H]2CN(C(C)(C)C)C[C@H]2c2ccc(Cl)cc2)C1)[C@H]1CC[C@@H](C)CC1.Cl [test compound, N-((3S,5S)-1-((3S,4R)-1-(tert-butyl)-4-(4-chlorophenyl)pyrrolidine-3-carbonyl)-5-(morpholine-4-carbonyl)pyrrolidin-3-yl)-N-((1s,4R)-4-methylcyclohexyl)isobutyramide hydrochloride]
effect of reduction in fat weight [1]: synergistic effect in reducing liver and fat weights
effect of reduction in liver weight [1]: synergistic effect in reducing liver and fat weights
reduction in body fat mass ([2]; co-administration with PF-06882961, day 28, 1H-Mini-spec, versus single administration, FIG. 7): much greater reduction in body fat mass
improvement in glucose tolerance (OGTT) ([2]; co-administration with PF-06882961, day 28, oral glucose tolerance test, versus single administration, FIG. 8): improvement in glucose tolerance
weight loss effect (change in body weight relative to D1) ([2]; repeated co-administration with PF-06882961 over 4 weeks (28 days), versus single administrations, FIG. 6): synergistic weight loss effect
reduction in food intake ([2]; repeated co-administration with PF-06882961 over 28 days, versus single administrations, FIG. 5): significant reduction in food intake
weight loss effect (change in body weight after 18 days relative to D1) [3]: significant synergistic weight loss effect
weight loss effect (change in body weight relative to D1) [4]: synergistic weight loss effect

Source: patent publication US20260000675A1, “COMBINATION THERAPY FOR PREVENTING OR TREATING OBESITY” (LG CHEM, LTD., priority 2022, published 2026)
